Results from the supplement of paper PMC12076712.

Columns and labels:
Assay in all cases: pIC50, kinobeads binding competition
UniProt P48730 = molecular target: UniProt P48730
Procedure, shortened: (§1)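 Nine compound concentrations were tested, starting at 30 μM in 1:4 steps on live Jurkat cells (60 min, 37 °C, then lysis) or in 1:5 steps on Jurkat lysate or a 1:1:1:1 HEK293/K-562/HepG2/placenta lysate mix (60 min, 4 °C). Kinobeads-bound proteins were digested and quantified with TMT10 LC-MS/MS. pIC50 values are from logistic dose-response fits in the R drc package of fold changes relative to vehicle, from biological duplicates.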

UniProt Q9Y2K2 = molecular target: UniProt Q9Y2K2
Sequence of UniProt Q9Y2K2 (Q9Y2K2 whole entry, looked up): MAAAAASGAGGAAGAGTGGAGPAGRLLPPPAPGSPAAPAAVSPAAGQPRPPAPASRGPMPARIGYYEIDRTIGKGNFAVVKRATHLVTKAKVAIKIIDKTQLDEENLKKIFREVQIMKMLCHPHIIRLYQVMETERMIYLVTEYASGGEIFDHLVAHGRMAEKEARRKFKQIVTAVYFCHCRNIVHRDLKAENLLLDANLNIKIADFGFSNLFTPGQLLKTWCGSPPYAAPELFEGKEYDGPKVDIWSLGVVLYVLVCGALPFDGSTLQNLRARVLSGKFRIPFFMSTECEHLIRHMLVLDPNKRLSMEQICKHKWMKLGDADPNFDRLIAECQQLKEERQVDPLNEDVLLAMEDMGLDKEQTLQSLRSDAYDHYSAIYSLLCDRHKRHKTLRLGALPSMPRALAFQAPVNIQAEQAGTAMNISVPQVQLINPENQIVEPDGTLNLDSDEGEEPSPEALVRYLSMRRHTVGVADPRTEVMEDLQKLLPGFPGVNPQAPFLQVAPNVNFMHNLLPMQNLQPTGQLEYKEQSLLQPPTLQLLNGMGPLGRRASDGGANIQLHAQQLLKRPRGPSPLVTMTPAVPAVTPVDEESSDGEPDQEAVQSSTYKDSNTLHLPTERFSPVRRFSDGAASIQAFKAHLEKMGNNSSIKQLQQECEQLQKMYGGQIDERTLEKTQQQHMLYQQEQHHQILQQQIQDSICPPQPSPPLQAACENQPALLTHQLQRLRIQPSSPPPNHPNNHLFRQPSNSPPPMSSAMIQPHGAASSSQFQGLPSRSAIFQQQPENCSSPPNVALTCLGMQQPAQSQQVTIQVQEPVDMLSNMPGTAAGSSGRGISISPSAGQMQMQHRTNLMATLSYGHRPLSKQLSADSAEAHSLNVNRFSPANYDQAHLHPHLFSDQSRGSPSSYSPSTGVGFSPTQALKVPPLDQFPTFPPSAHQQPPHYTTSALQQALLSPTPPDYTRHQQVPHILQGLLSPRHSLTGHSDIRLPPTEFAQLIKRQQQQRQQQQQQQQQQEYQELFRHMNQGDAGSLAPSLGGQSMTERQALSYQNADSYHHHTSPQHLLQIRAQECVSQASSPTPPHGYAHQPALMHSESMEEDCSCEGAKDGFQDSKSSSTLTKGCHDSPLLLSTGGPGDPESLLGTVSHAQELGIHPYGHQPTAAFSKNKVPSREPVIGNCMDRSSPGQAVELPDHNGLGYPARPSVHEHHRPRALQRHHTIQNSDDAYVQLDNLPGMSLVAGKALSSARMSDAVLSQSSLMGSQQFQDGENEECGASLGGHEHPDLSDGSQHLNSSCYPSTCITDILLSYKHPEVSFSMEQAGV
Procedure, shortened: as §1

ACVR2B = ACVR2B (UniProt Q13705)
Sequence of ACVR2B (Q13705 whole entry): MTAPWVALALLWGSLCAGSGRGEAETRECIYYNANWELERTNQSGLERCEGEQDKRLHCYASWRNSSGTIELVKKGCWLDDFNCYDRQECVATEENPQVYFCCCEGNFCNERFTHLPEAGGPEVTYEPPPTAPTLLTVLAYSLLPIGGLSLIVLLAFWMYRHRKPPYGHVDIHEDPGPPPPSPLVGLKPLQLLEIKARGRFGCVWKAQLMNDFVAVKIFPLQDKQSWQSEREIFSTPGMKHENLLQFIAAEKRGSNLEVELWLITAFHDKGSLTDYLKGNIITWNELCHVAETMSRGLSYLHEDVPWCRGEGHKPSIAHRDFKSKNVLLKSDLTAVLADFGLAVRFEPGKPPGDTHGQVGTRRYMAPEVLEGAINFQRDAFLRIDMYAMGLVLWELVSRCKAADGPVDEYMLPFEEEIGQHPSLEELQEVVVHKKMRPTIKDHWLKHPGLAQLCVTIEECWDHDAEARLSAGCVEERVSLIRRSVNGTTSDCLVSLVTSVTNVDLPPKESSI
Procedure, shortened: as §1

UniProt P51955 = molecular target: T1, UniProt P51955
T1 sequence (whole entry): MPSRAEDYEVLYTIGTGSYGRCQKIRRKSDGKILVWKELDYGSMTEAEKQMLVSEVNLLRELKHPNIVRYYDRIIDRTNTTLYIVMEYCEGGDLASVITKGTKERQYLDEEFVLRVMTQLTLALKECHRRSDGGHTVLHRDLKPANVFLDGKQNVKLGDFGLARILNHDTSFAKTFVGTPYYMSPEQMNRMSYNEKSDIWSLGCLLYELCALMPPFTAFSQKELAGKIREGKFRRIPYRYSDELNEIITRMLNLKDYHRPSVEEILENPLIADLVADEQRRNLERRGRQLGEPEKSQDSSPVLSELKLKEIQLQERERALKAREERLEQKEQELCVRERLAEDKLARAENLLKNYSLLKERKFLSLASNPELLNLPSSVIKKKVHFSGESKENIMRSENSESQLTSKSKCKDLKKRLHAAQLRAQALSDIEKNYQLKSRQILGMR
Procedure, shortened: as §1

UniProt O43318 = molecular target: T2, UniProt O43318
T2 sequence (whole entry): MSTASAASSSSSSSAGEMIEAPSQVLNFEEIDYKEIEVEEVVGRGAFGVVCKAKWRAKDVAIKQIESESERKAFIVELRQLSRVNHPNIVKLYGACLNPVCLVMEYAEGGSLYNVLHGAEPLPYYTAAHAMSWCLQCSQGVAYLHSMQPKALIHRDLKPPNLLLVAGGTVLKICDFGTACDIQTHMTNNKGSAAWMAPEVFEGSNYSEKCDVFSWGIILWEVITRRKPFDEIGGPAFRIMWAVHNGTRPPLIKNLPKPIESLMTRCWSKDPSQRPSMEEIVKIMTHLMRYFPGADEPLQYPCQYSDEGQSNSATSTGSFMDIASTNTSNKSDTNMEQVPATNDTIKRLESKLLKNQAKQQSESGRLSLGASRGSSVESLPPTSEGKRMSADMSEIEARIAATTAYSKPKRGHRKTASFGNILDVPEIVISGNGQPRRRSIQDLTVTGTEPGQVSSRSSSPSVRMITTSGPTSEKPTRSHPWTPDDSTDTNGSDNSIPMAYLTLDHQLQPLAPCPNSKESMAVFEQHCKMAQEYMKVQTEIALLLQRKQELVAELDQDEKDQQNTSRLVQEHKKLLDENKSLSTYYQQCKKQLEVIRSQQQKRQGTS
Procedure, shortened: as §1

UniProt Q05397 = molecular target: UniProt Q05397
Sequence of UniProt Q05397 (Q05397 whole entry, looked up): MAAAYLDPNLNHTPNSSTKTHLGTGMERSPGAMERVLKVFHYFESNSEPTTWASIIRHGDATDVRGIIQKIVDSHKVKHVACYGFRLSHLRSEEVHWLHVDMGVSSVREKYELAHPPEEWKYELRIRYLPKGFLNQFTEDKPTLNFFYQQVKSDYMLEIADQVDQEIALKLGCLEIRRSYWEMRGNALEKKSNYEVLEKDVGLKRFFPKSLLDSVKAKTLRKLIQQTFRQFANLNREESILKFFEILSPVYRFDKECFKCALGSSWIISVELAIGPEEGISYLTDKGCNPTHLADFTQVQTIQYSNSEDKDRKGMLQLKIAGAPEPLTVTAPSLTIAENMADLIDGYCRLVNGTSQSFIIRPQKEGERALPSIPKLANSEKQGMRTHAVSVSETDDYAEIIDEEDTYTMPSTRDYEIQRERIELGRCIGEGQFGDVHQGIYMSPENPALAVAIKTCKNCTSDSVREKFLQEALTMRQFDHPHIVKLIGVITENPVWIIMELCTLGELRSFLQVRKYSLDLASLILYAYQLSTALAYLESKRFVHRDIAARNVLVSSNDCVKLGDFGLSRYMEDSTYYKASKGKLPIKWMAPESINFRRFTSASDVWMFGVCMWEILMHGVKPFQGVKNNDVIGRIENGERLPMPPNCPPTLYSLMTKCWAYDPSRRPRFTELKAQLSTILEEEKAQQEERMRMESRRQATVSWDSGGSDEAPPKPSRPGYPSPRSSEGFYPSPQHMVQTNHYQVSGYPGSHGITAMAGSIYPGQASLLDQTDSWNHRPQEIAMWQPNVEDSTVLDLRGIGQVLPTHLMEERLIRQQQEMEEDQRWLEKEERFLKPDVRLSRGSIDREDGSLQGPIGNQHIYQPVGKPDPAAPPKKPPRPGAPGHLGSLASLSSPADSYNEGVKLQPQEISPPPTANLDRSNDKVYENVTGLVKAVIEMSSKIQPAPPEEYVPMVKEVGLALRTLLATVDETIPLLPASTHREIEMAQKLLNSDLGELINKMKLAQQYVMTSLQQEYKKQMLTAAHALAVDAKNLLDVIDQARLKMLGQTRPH
Procedure, shortened: as §1

EPHA4 = EPHA4 (UniProt P54764); details: cell material: Lysate mix
Procedure, shortened: as §1

UniProt O14965 = molecular target: T3, UniProt O14965
T3 sequence (whole entry): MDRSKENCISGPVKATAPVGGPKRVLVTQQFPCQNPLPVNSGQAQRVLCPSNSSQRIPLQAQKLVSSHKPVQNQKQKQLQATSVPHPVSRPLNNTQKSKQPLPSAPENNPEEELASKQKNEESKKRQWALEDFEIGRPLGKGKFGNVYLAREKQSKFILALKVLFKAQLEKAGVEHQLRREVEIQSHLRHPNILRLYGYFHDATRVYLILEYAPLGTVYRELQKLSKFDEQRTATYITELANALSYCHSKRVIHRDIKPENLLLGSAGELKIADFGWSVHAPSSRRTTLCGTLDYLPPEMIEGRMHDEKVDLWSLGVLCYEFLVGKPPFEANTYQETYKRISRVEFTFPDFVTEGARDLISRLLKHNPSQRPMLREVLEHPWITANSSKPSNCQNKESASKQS
Procedure, shortened: as §1

MAP4K5 = MAP4K5 (UniProt Q9Y4K4)
Procedure, shortened: as §1

PLK1 = PLK1 (UniProt P53350)
Sequence of PLK1 (P53350 whole entry): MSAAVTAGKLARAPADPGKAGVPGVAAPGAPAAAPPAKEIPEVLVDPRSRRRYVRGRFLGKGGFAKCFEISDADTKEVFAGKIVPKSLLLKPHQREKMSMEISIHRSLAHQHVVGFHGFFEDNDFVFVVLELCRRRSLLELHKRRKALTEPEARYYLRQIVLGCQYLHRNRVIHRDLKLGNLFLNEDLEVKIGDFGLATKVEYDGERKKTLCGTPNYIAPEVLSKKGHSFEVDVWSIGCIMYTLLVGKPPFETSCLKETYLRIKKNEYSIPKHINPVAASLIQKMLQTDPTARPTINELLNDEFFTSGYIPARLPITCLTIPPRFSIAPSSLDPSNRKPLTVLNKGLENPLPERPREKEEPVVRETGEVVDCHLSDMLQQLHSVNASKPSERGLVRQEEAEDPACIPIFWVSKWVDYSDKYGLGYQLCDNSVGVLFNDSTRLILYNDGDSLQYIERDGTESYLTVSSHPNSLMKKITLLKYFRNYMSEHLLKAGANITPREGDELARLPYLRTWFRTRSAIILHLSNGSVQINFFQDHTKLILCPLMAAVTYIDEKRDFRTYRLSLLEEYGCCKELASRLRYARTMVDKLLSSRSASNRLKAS
Procedure, shortened: as §1

UniProt P78527 = molecular target: UniProt P78527
Procedure, shortened: as §1

Fyn = Fyn (UniProt P06241)
Sequence of Fyn (P06241 whole entry, looked up): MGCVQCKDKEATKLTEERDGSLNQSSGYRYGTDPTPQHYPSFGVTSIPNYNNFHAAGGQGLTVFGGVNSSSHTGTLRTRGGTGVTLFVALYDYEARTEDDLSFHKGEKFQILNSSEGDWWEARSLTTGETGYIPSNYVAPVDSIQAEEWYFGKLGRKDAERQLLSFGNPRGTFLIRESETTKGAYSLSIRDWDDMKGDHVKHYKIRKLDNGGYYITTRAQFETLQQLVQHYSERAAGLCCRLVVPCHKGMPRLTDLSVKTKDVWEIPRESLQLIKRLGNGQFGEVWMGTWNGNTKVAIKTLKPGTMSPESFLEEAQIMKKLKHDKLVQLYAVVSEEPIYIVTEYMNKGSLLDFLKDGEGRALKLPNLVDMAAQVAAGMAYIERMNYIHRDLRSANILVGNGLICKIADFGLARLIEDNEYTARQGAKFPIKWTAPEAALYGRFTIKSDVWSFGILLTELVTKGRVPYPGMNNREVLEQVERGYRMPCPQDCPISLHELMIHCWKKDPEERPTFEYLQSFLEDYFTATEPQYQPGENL
Procedure, shortened: as §1

TP53RK = molecular target: T4, TP53RK (UniProt Q96S44)
T4 sequence (whole entry): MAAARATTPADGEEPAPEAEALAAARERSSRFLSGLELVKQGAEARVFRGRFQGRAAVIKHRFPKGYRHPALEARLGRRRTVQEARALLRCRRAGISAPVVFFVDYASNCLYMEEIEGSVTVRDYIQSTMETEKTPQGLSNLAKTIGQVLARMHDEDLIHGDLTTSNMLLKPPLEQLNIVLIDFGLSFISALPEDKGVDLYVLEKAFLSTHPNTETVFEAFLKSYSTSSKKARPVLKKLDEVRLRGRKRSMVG
Procedure, shortened: as §1

CDK2 = CDK2 (UniProt P24941)
Procedure, shortened: as §1

UniProt P49841 = molecular target: UniProt P49841
Sequence of UniProt P49841 (P49841 whole entry, looked up): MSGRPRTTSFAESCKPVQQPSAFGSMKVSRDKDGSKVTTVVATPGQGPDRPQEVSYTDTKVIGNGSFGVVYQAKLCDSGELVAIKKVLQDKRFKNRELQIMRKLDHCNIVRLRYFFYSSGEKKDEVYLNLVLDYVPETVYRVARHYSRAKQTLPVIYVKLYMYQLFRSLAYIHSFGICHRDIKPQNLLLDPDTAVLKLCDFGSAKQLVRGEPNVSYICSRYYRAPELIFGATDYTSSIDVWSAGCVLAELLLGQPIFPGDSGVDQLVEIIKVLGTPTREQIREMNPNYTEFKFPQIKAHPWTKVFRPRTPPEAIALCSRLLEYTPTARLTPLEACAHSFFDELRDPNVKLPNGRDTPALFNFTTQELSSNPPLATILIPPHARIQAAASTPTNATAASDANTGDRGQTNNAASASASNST
Procedure, shortened: as §1

EPHA7 = EPHA7 (UniProt Q15375); details: cell material: Lysate mix
Procedure, shortened: as §1

UniProt P51812 = molecular target: UniProt P51812
Procedure, shortened: as §1

IGF1R = IGF1R (UniProt P08069)
Procedure, shortened: as §1

Sequence of UniProt P48730 (P48730 whole entry, looked up): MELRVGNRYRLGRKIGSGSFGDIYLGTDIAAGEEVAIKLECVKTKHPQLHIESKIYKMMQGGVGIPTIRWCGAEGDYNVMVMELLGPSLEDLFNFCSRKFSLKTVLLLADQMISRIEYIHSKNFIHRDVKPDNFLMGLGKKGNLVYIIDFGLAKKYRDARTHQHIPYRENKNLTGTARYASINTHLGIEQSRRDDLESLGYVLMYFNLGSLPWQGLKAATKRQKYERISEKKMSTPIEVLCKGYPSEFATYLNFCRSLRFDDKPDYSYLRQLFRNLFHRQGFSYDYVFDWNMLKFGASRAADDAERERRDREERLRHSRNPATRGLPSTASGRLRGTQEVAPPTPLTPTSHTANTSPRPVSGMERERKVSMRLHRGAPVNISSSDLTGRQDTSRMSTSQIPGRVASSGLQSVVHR

## C#CCNC(=O)c1cc(Nc2cc(C)[nH]n2)nc(N2CCN(Cc3ccc(S(=O)(=O)F)cc3)CC2)n1
UniProt P48730; cell material: Lysate mix
  pIC50: < 4.52
UniProt Q9Y2K2; cell material: Lysate mix
  pIC50: < 4.52
ACVR2B; cell material: Lysate mix
  pIC50: < 4.52
UniProt P51955; cell material: Lysate mix
  pIC50: 4.81
UniProt O43318; cell material: Lysate mix
  pIC50: < 4.52
UniProt Q05397; cell material: Lysate mix
  pIC50: < 4.52
EPHA4
  pIC50: < 4.52
UniProt O14965; cell material: Lysate mix
  pIC50: 6.73
MAP4K5; cell material: Lysate mix
  pIC50: 5.53
PLK1; cell material: Lysate mix
  pIC50: < 4.52
UniProt P78527; cell material: Lysate mix
  pIC50: < 4.52
Fyn; cell material: Lysate mix
  pIC50: 5.93
TP53RK; cell material: Lysate mix
  pIC50: < 4.52
CDK2; cell material: Lysate mix
  pIC50: 6.2
UniProt P49841; cell material: Lysate mix
  pIC50: < 4.52
EPHA7
  pIC50: < 4.52
UniProt P51812; cell material: Lysate mix
  pIC50: 5.11
IGF1R; cell material: Lysate mix
  pIC50: < 4.52

## O=C(NCCNC(=O)c1cc(Nc2cc(C3CC3)[nH]n2)nc(N2CCN(Cc3ccc(S(=O)(=O)F)cc3)CC2)n1)OC1CC/C=C/CCC1 (stereo not drawn)
UniProt P48730; cell material: Jurkat cells
  pIC50: < 4.52
UniProt P48730; cell material: Jurkat lysate
  pIC50: < 4.52
UniProt P48730; cell material: Lysate mix
  pIC50: < 4.52
UniProt Q9Y2K2; cell material: Jurkat cells
  pIC50: < 4.52
UniProt Q9Y2K2; cell material: Jurkat lysate
  pIC50: < 4.52
UniProt Q9Y2K2; cell material: Lysate mix
  pIC50: < 4.52
ACVR2B; cell material: Jurkat cells
  pIC50: < 4.52
ACVR2B; cell material: Jurkat lysate
  pIC50: < 4.52
ACVR2B; cell material: Lysate mix
  pIC50: < 4.52
UniProt P51955; cell material: Jurkat cells
  pIC50: 6.24
UniProt P51955; cell material: Jurkat lysate
  pIC50: < 4.52
UniProt P51955; cell material: Lysate mix
  pIC50: < 4.52
UniProt O43318; cell material: Jurkat cells
  pIC50: 5.65
UniProt O43318; cell material: Jurkat lysate
  pIC50: < 4.52
UniProt O43318; cell material: Lysate mix
  pIC50: < 4.52
UniProt Q05397; cell material: Jurkat cells
  pIC50: < 4.52
UniProt Q05397; cell material: Jurkat lysate
  pIC50: < 4.52
UniProt Q05397; cell material: Lysate mix
  pIC50: < 4.52
EPHA4
  pIC50: < 4.52
UniProt O14965; cell material: Jurkat cells
  pIC50: 6.98
UniProt O14965; cell material: Jurkat lysate
  pIC50: 5
UniProt O14965; cell material: Lysate mix
  pIC50: 5.3
MAP4K5; cell material: Jurkat cells
  pIC50: 5.8
MAP4K5; cell material: Jurkat lysate
  pIC50: < 4.52
MAP4K5; cell material: Lysate mix
  pIC50: < 4.52
PLK1; cell material: Jurkat cells
  pIC50: 5.85
PLK1; cell material: Jurkat lysate
  pIC50: < 4.52
PLK1; cell material: Lysate mix
  pIC50: < 4.52
UniProt P78527; cell material: Jurkat cells
  pIC50: < 4.52
UniProt P78527; cell material: Jurkat lysate
  pIC50: < 4.52
UniProt P78527; cell material: Lysate mix
  pIC50: < 4.52
Fyn; cell material: Jurkat cells
  pIC50: 5.1
Fyn; cell material: Jurkat lysate
  pIC50: < 4.52
Fyn; cell material: Lysate mix
  pIC50: < 4.52
TP53RK; cell material: Jurkat cells
  pIC50: < 4.52
TP53RK; cell material: Jurkat lysate
  pIC50: < 4.52
TP53RK; cell material: Lysate mix
  pIC50: < 4.52
CDK2; cell material: Jurkat cells
  pIC50: 6.45
CDK2; cell material: Jurkat lysate
  pIC50: 5.06
CDK2; cell material: Lysate mix
  pIC50: 5.19
UniProt P49841; cell material: Jurkat cells
  pIC50: 4.84
UniProt P49841; cell material: Jurkat lysate
  pIC50: < 4.52
UniProt P49841; cell material: Lysate mix
  pIC50: < 4.52
EPHA7
  pIC50: < 4.52
UniProt P51812; cell material: Jurkat cells
  pIC50: 5.86
UniProt P51812; cell material: Jurkat lysate
  pIC50: < 4.52
UniProt P51812; cell material: Lysate mix
  pIC50: < 4.52
IGF1R; cell material: Jurkat cells
  pIC50: < 4.52
IGF1R; cell material: Jurkat lysate
  pIC50: < 4.52
IGF1R; cell material: Lysate mix
  pIC50: < 4.52
